How the values were obtained:
[1] = tested on: Collectotrichum graminicola; assay: Fungal growth inhibition assay, Collectotrichum graminicola; format: cell-based; conditions: Colletotrichum graminicola, 48 hours, read-out: C. graminicola % growth inhibition at 48 hours
Experimental: (§1) Spores were isolated from previously sub-cultured plates of Botrytis cinerea, Phytophthora capsici, Fusarium moniliforme, Fusarium viguliforme, Collectotrichum graminicola, and Diplodia maydis. All spores were filtered and collected in a sterile glass bowl to isolate the spores from the mycelia. The isolation and sub-culture plate condition for each pathogen is described below.
Spore isolation for C. graminicola: A 1-2 week old oatmeal agar (pre-mix) plate was removed from 26° C. incubator with a light/dark 12 hour cycle and the mycelia were treated with 10-15 ml of filter sterilized distilled water. The mycelia were scraped to re-suspend the spores. The spores were then collected in a sterile filter bowl containing a piece of sterile cheesecloth and poured into a conical tube.
(§2) After spore isolation, pathogen spores were counted on a hemocytometer to calculate the spores/ml. In 17% V8 liquid media containing 3 g/L CaCO3, isolated spores were diluted to individual concentrations based on the growth curves at 48 hours of each pathogen. The spore concentrations for each pathogen were as follows: B. cinerea—10,000 sp/ml; P. capsici—300 sp/ml; F. monliforme—500 sp/ml; F. virguliforme—500 sp/ml; C. graminicola—3,000 sp/ml; and D. maydis—3,000 sp/ml.
(§3) Chemistry stocks were dissolved in DMSO at 2.5 mg/ml. Chemistry was diluted in a 96-well stock plate in five-fold dilutions to obtain a final concentration of 50, 10, and 2 ppm in vitro. The final concentration of the positive control after the five-fold dilutions was as follows: soraphen—0.5, 0.1, and 0.02 ppm. Negative controls on each plate included 2% DMSO, water containing spores and media, and a blank for background subtraction.
(§4) In a 96-well plate the spore solution, chemistries, and controls were combined to make the final solution concentrations mentioned above. Upon addition of the chemistry, an OD600 reading was done to assess chemical precipitation. The 96-well plates were incubated in plastic tubs containing wet paper towels under the following conditions, 25° C. in the dark for P. capsici and B. cinerea or 26° C. with light/dark cycle for C. graminicola, D. maydis, F. virguliforme, F. monliforme. Plate readings were repeated at 24 and 48 hrs. Visual ratings were performed at 24 and 48 hrs to check for precipitation and confirm efficacy. Visual and OD600 ratings of the chemistry at 48 hours were compared to the 2% DMSO control to determine the percent of pathogen growth inhibition.

Diplodia maydis = assay: Fungal growth inhibition assay, Diplodia maydis; format: cell-based; conditions: 48 hours, read-out: D. maydis % growth inhibition at 48 hours
Experimental: as §1
Spore isolation for D. maydis: A 3-4 week old PDA (pre-mix) plate was removed from 26° C. incubator with a light/dark 12 hour cycle and the mycelia were treated with 6-7 ml of sterile distilled water, scraped into a sterile petri dish, and smashed to open the pycnidia. The spores were then collected in a sterile filter bowl containing a fluted piece of filter paper and poured into a conical tube.
as §2, §3, §4

[2] = target: Ustilago maydis acetyl CoA carboxylase (ACCase) (Mycosarcoma maydis (Ustilago maydis), UniProt A0A0D1DYD5); assay: ACCase enzymatic assay (coupled PK/LDH, NADH OD340); format: biochemical; conditions: Table 1A; values marked a are a result of two or more experiments; read-out: ACCase Inhibitory Activity IC50
Experimental: Ustilago maydis acetyl CoA carboxylase (ACCase) was cloned, expressed, and purified as described (Weatherly et al, Biochem. J., 2004) and the test compounds were tested in a 96-well plate format. Primary in vitro screening consisted of obtaining dose response data at 100, 33, 10, and 1 μM inhibitor. Actives in the primary screen were re-tested to establish IC50 values.
Direct detection of the conversion of acetyl CoA to malonyl CoA by ACCase was not feasible, but during this process ATP is converted to ADP which allowed for detection through a standard reaction coupling with ADP recycling to the oxidation of NADH. Thus, ACCase activity was measured via kinetic OD340 measurements of the conversion of NADH to NAD in a coupled reaction involving the conversion of phosphoenolpyruvate (PEP) to lactate.
The complete 200 ul reaction mixture contained 52.5 mM HEPES (pH8), 2.625 mM MgCl2, 1 mM ATP, 0.525 mM DTT, 11 mM NaHCO3, 1% DMSO with or without inhibitor, 1× pyruvate kinase/lactate dehydrogenase (PK/LDH), 0.3 mM NADH, 0.5 mM PEP, and 5 μg ACCase. The reactions were incubated at 30° C. for 10 minutes and then initiated by the addition of 0.33 mM acetyl CoA. The initiated reactions were read immediately via plate reader at OD340 and kinetic readings were acquired every 20 s for 15 minutes while keeping the temperature at 30° C.
A slope of the kinetic curve was determined by using the 2 to 7 minute data which was then calculated as percent inhibition relative to the no inhibitor control.
The primary screens were conducted in duplicate and the IC50's conducted in triplicate. Averages were reported along with standard deviation calculation to generate error bars.
Each plate contained its own controls and consisted of a DMSO only control, 5-fold titration series of soraphen from 2 μM to 3.2 nM, and an ADP coupled reaction control.

Phytophthora capsici = assay: Fungal growth inhibition assay, Phytophthora capsici; format: cell-based; conditions: 48 hours, read-out: P. capsici % growth inhibition at 48 hours
Text: as §1
Spore isolation for P. capsici: Three to five days prior to the assay a 2-3 week old V8 (17%)+CaCO3 (3 g/L)+20 g agar plate was removed from a dark 25° C. incubator and cut up into small chunks. One plate was separated into two deep well plates and rinsed with sterile distilled water three times. The cut up pieces were incubated under light in a sterile filter hood with 25 ml of sterile distilled water. On the day of the assay the water was removed and 5-7 ml of fresh sterile distilled water was added. One plate was incubated at 4° C. for 45-60 minutes and then placed at room temperature for about 45-60 minutes. The spores were collected in a sterile filter bowl containing a fluted piece of filter paper. The spores were vortexed in a conical tube for 30-60 seconds to remove the flagella of the zoospores after isolation.
as §2, §3, §4

Sequence of Ustilago maydis acetyl CoA carboxylase (ACCase) (A0A0D1DYD5 1-2185): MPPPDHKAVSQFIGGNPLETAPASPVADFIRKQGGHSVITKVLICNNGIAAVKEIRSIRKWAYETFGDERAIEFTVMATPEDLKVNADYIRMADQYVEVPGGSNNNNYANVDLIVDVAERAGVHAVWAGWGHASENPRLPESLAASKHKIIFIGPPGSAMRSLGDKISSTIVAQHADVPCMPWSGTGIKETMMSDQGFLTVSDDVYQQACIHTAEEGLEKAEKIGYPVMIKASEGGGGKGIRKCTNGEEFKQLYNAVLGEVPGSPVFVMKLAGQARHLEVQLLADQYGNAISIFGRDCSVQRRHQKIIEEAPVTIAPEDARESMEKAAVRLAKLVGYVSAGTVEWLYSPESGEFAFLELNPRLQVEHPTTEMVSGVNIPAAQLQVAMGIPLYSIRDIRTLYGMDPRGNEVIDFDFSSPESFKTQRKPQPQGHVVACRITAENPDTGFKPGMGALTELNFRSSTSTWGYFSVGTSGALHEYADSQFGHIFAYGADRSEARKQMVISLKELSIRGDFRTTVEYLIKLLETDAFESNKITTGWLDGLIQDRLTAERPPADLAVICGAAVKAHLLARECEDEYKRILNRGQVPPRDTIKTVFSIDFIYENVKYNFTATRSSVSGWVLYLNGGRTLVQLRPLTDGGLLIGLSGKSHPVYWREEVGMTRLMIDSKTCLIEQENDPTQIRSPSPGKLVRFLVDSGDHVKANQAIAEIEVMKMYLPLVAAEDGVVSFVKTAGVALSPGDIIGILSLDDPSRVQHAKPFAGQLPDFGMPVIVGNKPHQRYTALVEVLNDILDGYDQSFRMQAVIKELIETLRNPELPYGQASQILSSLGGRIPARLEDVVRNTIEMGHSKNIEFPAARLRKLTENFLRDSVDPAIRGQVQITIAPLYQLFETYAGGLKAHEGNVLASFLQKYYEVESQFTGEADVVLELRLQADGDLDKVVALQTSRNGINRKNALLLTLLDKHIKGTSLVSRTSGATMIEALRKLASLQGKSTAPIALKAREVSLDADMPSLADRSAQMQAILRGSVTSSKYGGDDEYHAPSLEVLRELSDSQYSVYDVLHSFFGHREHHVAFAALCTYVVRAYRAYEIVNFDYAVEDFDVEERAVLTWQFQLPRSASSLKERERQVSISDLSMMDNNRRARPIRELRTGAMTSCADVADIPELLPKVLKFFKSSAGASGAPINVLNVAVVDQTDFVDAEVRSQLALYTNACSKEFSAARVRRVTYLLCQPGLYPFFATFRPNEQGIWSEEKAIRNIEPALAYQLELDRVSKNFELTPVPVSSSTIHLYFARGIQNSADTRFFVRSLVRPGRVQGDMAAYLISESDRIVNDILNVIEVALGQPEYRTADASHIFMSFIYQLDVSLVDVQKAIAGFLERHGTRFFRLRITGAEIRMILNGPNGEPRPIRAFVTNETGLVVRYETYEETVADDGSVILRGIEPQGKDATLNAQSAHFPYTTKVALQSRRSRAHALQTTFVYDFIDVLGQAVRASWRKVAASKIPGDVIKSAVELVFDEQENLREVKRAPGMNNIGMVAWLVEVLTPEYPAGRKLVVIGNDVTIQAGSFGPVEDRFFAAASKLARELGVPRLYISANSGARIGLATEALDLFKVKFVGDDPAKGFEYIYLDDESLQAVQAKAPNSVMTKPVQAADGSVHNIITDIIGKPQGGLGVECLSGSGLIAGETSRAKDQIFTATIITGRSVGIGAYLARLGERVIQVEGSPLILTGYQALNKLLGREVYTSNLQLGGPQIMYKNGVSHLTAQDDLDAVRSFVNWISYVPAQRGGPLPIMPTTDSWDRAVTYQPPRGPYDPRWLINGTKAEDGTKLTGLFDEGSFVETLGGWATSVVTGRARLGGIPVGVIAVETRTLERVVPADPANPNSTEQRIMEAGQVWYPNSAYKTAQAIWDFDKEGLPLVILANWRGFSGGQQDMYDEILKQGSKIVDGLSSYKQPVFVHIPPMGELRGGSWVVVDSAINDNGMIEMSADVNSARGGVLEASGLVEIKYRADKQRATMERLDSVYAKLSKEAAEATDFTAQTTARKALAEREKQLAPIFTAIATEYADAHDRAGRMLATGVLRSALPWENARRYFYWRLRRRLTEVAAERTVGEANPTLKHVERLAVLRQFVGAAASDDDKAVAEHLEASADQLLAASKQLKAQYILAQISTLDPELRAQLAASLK

SMILES	inhibition at 2 ppm [1] [%]	inhibition at 10 ppm [1] [%]	inhibition at 50 ppm [1] [%]	inhibition at 2 ppm (Diplodia maydis) [%]	inhibition at 10 ppm (Diplodia maydis) [%]	inhibition at 50 ppm (Diplodia maydis) [%]	IC50 [2] [nM]	inhibition at 2 ppm (Phytophthora capsici) [%]	inhibition at 10 ppm (Phytophthora capsici) [%]	inhibition at 50 ppm (Phytophthora capsici) [%]
COc1ccc(-c2cc(-c3cccs3)nc(SC(C(=O)O)c3ccccc3)c2C#N)cc1 (stereo not drawn) [Formula Ia-v, 2-((3-cyano-4-(4-methoxyphenyl)-6-(thiophen-2-yl)pyridin-2-yl)thio)-2-phenylacetic acid]	0	32	79	0	61	52	119			
N#Cc1c(-c2ccccc2)cc(-c2cccs2)nc1SC(C(=O)O)c1ccccc1 (stereo not drawn) [Formula Ia-iv, 2-((3-cyano-4-phenyl-6-(thiophen-2-yl)pyridin-2-yl)thio)-2-phenylacetic acid]	5	41	76				492	0	11	90
COc1ccc(-c2cc(C(F)(F)F)c(C#N)c(SC(C(=O)O)c3ccccc3)n2)cc1OC (stereo not drawn) [Formula Ia-ix, 2-((3-cyano-6-(3,4-dimethoxyphenyl)-4-(trifluoromethyl)pyridin-2-yl)thio)-2-phenylacetic acid]	5	17	72	32	37	70	1600	10	39	34
N#Cc1c(SC(C(=O)O)c2ccccc2)nc(-c2cccs2)c2c1CCCC2 (stereo not drawn) [Formula Ia-vii, 2-((4-cyano-1-(thiophen-2-yl)-5,6,7,8-tetrahydroisoquinolin-3-yl)thio)-2-phenylacetic acid]	11	19	71	11	46	64	3800	0	9	100
N#Cc1c(C(F)(F)F)cc(-c2ccco2)nc1SC(C(=O)O)c1ccccc1 (stereo not drawn) [Formula Ia-xi, 2-((3-cyano-6-(furan-2-yl)-4-(trifluoromethyl)pyridin-2-yl)thio)-2-phenylacetic acid]				38	54	82	5430			
N#Cc1c(-c2ccc(Cl)cc2)cc(-c2cccs2)nc1SC(C(=O)O)c1ccccc1 (stereo not drawn) [Formula Ia-i, 2-((4-(4-chlorophenyl)-3-cyano-6-(thiophen-2-yl)pyridin-2-yl)thio)-2-phenylacetic acid]	28	72	92	3	57	65	370			

From patent US10548313B2, “Acetyl-CoA carboxylase modulators” (Monsanto Technology LLC, priority 2013, dated 2020)
